From ChEMBL document CHEMBL3727357, “Compositions and methods for inhibiting g protein signaling” (2010)
Activity calls are given as the source filed them. No cut-off for these calls is given here.

How the values were obtained:
[1] = molecular target: Guanine nucleotide-binding protein G(I)/G(S)/G(T) subunit beta-1/gamma-2 (Homo sapiens, UniProt P59768+P62873); assay: (§1) Inhibition of SIGKAFKILGYPDYD binding to biotinylated Gbeta1gamma2 (unknown origin) incubated for 1 hr by phage ELISA; assay type: protein-complex assay
Guanine nucleotide-binding protein G(I)/G(S)/G(T) subunit beta-1/gamma-2 (Homo sapiens, UniProt P59768+P62873), sequence (P59768 2-71 partner limits assumed): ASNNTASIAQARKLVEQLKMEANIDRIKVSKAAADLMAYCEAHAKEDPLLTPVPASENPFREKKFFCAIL
Guanine nucleotide-binding protein G(I)/G(S)/G(T) subunit beta-1/gamma-2 (Homo sapiens, UniProt P59768+P62873), sequence (P62873 2-340 limits assumed): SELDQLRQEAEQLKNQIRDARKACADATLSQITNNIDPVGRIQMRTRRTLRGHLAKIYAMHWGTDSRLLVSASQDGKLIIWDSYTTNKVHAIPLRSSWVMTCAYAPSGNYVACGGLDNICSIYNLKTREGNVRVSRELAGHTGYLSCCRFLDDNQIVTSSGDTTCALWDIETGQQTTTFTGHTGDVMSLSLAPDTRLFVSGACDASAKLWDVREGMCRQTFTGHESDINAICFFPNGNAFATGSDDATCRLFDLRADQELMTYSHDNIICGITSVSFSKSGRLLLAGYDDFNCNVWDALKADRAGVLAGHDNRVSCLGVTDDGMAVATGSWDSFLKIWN

CHO = assay: Inhibition of human Gbetagamma-dependent kappa opioid receptor-mediated PLC activation expressed in CHO cells assessed as reduction of U50,488-mediated total inositol phosphate production at 10 uM after 30 mins by scintillation counting analysis in presence of [3H]inositol; assay type: cell-based
HL-60 [2] = assay: Effect on fMLP-stimulated ERK1/2 phosphorylation in human HL60 cells at 10 uM incubated for 5 mins prior to fMLP stimulation by Western blot analysis; assay type: functional, cell-based
HL-60 [3] = assay: Binding affinity to Gbetagamma in human HL60 cells assessed as inhibition of fMLP-stimulated GRK2 translocation at 10 uM incubated for 5 mins prior to fMLP stimulation by Western blot analysis; assay type: cell-based
[4] = molecular target: T1, Guanine nucleotide-binding protein G(I)/G(S)/G(T) subunit beta-1/gamma-2 (Homo sapiens, UniProt P62873+P59768); assay: Inhibition of biotinylated Gbeta1gamma2 (unknown origin) binding to PLCbeta2 at 1 uM incubated for 16 hrs; assay type: protein-complex assay
Target sequence in this assay (P59768 2-71 partner limits assumed): as the sequence (P59768 2-71 partner limits assumed) above
Target sequence in this assay (P62873 2-340 limits assumed): as the sequence (P62873 2-340 limits assumed) above

[5] = molecular target: T1, Guanine nucleotide-binding protein G(I)/G(S)/G(T) subunit beta-1/gamma-2; assay: Inhibition of biotinylated Gbeta1gamma2 (unknown origin) binding to PLCbeta3 at 1 uM incubated for 16 hrs; assay type: protein-complex assay
Target sequence in this assay (P59768 2-71 partner limits assumed): as the sequence (P59768 2-71 partner limits assumed) above
Target sequence in this assay (P62873 2-340 limits assumed): as the sequence (P62873 2-340 limits assumed) above

Mus musculus [6] = assay: Antiinflammatory activity in Swiss-Webster mouse carrageenan-induced paw edema model assessed as reduction of paw exudate volume at 2.5 mg/kg, ip administered 1 hr followed by carrageenan challenge; assay type: functional, organism-based
Mus musculus [7] = assay: Antiinflammatory activity in Swiss-Webster mouse assessed as inhibition of carrageenan-induced paw edema at 2.5 mg/kg, ip administered 1 hr followed by carrageenan challenge measured 3 times every 2 hrs; assay type: functional, organism-based
Mus musculus [8] = assay: Antiinflammatory activity in Swiss-Webster mouse carrageenan-induced paw edema model assessed as inhibition of neutrophils recruitment in edematous fluid at 2.5 mg/kg, ip administered 1 hr followed by carrageenan challenge; assay type: functional, organism-based
[9] = molecular target: T1, Guanine nucleotide-binding protein G(I)/G(S)/G(T) subunit beta-1/gamma-2; assay: Inhibition of biotinylated Gbeta1gamma2 (unknown origin)-mediated PLCbeta3 activation incubated for 16 hrs; assay type: protein-complex assay
Target sequence in this assay (P59768 2-71 limits assumed): as the sequence (P59768 2-71 partner limits assumed) above
Target sequence in this assay (P62873 2-340 limits assumed): as the sequence (P62873 2-340 limits assumed) above

[10] = molecular target: T1, Guanine nucleotide-binding protein G(I)/G(S)/G(T) subunit beta-1/gamma-2; assay: Inhibition of biotinylated Gbeta1gamma2 (unknown origin)-mediated PLCbeta2 activation incubated for 16 hrs; assay type: protein-complex assay
Target sequence in this assay (P59768 2-71 limits assumed): as the sequence (P59768 2-71 partner limits assumed) above
Target sequence in this assay (P62873 2-340 limits assumed): as the sequence (P62873 2-340 limits assumed) above

[11] = molecular target: T1, Guanine nucleotide-binding protein G(I)/G(S)/G(T) subunit beta-1/gamma-2; assay: as §1; assay type: protein-complex assay
Target sequence in this assay (P59768 2-71 partner limits assumed): as the sequence (P59768 2-71 partner limits assumed) above
Target sequence in this assay (P62873 2-340 limits assumed): as the sequence (P62873 2-340 limits assumed) above

[12] = molecular target: T1, Guanine nucleotide-binding protein G(I)/G(S)/G(T) subunit beta-1/gamma-2; assay: Inhibition of SIGKAFKILGYPDYD binding to biotinylated Gbeta1gamma2 (unknown origin) at 300 uM incubated for 1 hr by phage ELISA; assay type: protein-complex assay
Target sequence in this assay (P59768 2-71 partner limits assumed): as the sequence (P59768 2-71 partner limits assumed) above
Target sequence in this assay (P62873 2-340 limits assumed): as the sequence (P62873 2-340 limits assumed) above

[13] = molecular target: Mu-type opioid receptor (Homo sapiens) (UniProt P35372); assay: Inhibition of human Gbetagamma-dependent mu opioid receptor-mediated PLC activation expressed in CHO cells assessed as reduction of DAMGO-mediated total inositol phosphate production at 10 uM after 30 mins by scintillation counting analysis in presence of [3H]inositol; assay type: functional, cell-based
Mu-type opioid receptor (Homo sapiens), sequence (P35372 whole entry): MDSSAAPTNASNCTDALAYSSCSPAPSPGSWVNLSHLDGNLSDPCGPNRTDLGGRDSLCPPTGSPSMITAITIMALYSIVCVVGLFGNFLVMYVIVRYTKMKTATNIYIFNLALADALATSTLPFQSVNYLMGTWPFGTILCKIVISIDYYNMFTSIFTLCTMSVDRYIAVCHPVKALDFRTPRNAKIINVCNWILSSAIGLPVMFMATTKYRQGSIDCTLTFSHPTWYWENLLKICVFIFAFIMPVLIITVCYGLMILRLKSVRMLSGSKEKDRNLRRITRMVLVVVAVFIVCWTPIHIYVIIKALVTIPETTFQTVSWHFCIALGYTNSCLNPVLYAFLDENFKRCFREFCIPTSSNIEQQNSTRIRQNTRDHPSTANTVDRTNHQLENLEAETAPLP

[14] = molecular target: Mu-type opioid receptor (Homo sapiens) (UniProt P35372); assay: Inhibition of human Gbetagamma-dependent mu opioid receptor-mediated PLC activation expressed in CHO cells assessed as reduction of morphine-mediated total inositol phosphate production at 10 uM after 30 mins by scintillation counting analysis in presence of [3H]inositol; assay type: functional, cell-based
[15] = molecular target: Delta-type opioid receptor (Homo sapiens) (UniProt P41143); settings: CHO, 100 uM
Delta-type opioid receptor (Homo sapiens), sequence (P41143 whole entry): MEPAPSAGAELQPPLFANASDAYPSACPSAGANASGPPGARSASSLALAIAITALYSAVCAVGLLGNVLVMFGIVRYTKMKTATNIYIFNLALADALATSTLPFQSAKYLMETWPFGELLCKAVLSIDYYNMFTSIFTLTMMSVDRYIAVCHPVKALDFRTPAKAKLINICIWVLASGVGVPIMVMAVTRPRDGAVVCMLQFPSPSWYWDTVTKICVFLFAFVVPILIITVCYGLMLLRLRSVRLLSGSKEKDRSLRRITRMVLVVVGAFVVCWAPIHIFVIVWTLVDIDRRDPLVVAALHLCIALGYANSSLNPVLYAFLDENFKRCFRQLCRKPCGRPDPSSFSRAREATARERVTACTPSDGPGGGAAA
Description: Inhibition of human Gbetagamma-dependent delta opioid receptor-mediated PLC activation expressed in CHO cells assessed as reduction of DPDPE-mediated total inositol phosphate production at 100 uM after 30 mins by scintillation counting analysis in presence of [3H]inositol

[16] = molecular target: Delta-type opioid receptor (Homo sapiens) (UniProt P41143); settings: CHO, 100 uM; remark: listed apart in the source
Description: Inhibition of human Gbetagamma-dependent delta opioid receptor-mediated PLC activation expressed in CHO cells assessed as reduction of Deltorphin 2-mediated total inositol phosphate production at 100 uM after 30 mins by scintillation counting analysis in presence of [3H]inositol

CC1C2C=CC1C(c1c3ccc(=O)cc-3oc3cc(O)ccc13)C2C(=O)O (configuration not stated)
IC50 [1]: 14 µM

Oc1ccc2c3c1O[C@H]1c4[nH]c5c(c4C[C@@]4(O)[C@@H](C2)N(CC2CC2)CC[C@]314)C[C@@]1(O)[C@H]2Cc3ccc(O)c4c3[C@@]1(CCN2CC1CC1)[C@H]5O4
inhibition (CHO): inactive

COc1cc2c(c(OC)c1OC)-c1ccc(O)c(=O)cc1C(N)CC2 (configuration not stated)
Activity (HL-60 [2]): inactive | inhibition (HL-60 [3]): Active | inhibition [4]: inactive | inhibition [5]: inactive

COc1ccc2c(c1)c(CC(=O)O)c(C)n2C(=O)c1ccc(Cl)cc1
Activity (Mus musculus [6]): Active | inhibition (Mus musculus [7]): Active | inhibition (Mus musculus [8]): Active

Ic1ccc2c(c1)N(c1ccccc1)c1cc(Nc3ccc4nc5ccc(I)cc5[n+](-c5ccccc5)c4c3)ccc1N2
IC50 [9]: Not Active | IC50 [10]: Not Active

O=C(O)c1ccc(-c2c3ccc(=O)cc-3oc3cc(O)ccc23)cc1
inhibition [11]: inactive | inhibition [12]: inactive

COC(=O)/C=C/C(=O)N[C@@H]1CC[C@@]2(O)[C@H]3Cc4ccc(O)c5c4[C@@]2(CCN3CC2CC2)[C@H]1O5
inhibition [13]: Active | inhibition [14]: Active

Oc1ccc2c3c1O[C@H]1c4[nH]c5ccccc5c4C[C@@]4(O)[C@@H](C2)N(CC2CC2)CC[C@]314
inhibition [15]: inactive | inhibition [16]: inactive
